# Reference: patent US20240398829A1, “A COBALT-[…] AMINO ACID COMPLEX AND ITS USE FOR TREATING CANCER” (AMELIO BIOTECH CO., LTD., priority 2021, published 2024)
# “And” between values parts separate entries of the source, which are not always exact repeats. Identical values can stand only once.
# Legend:
# [1] = system: Huh7 cells; experiment: Cell proliferation assay I (PrestoBlue), Huh7; assay type: cell-based, human; conditions: 72 h; for Huh7 cell survival (%): vs control without drug
# Protocol: (§1) U-87 MG cells (a human primary glioblastoma cell line) were cultured in MEM medium (Gibco, New York, NY, USA). A375 cells (a human melanoma cell line) and Huh7 cells (a human hepatocellular carcinoma (HCC) cell line) were cultured in DMEM medium (HyClone, Logan, UT, USA). The culture media were supplemented with 10% heat-inactivated fetal bovine serum (FBS), 1% penicillin/streptomycin and 1% […] (HyClone, Logan, UT, USA). Cells were seeded in 96-well plates at a density of 2000 cells/well. Then, cells were transferred to 37° C. incubator. […] At the end of incubation, the PrestoBlue™ Cell Viability Reagent (Invitrogen, Eugene, OR, USA) was distributed to cells. The plates were incubated for 90 min at 37° C. in a humidified, 5% CO2 atmosphere and the fluorescence was then recorded at Ex/Em: 560 nm/590 nm. Triplicate experiments were performed.
# [2] = system: A375; experiment: Cell proliferation assay II (MTS), A375; assay type: cell-based, human; conditions: A375, 72 h, mean ± SD
# Protocol: (§2) Human lung cancer cell line NCI-H226 was purchased from the American type culture collection (CRL-5826). NCI-H226 was grown in RPMI supplemented with 10% FBS in a humidified atmosphere containing 5% CO2 at 37° C. Human melanoma cell line A375, human pharynx squamous cell carcinoma FaDu, human cervical epithelioid carcinoma HeLa and human chronic myelogenous leukemia K-562 were purchased from Bioresource Collection and Research Center (BCRC), Hsinchu 300, Taiwan. A375 cells were grown in DMEM supplemented with 10% FBS in a humidified atmosphere 5% CO2 at 37° C. FaDu cells were grown in DMEM supplemented with 10% FBS in a humidified atmosphere 5% CO2 at 37° C. HeLa cell were grown in DMEM supplemented with 10% FBS in a humidified atmosphere 5% CO2 at 37° C. […]
# (§3) MTS/PMS solution was freshly prepared and added (20 μl per well) into each well of 96-well cultured plate. The assay plate was incubated for 3 hours at 37° C., 5% CO2, under humidified atmosphere, and measured the absorbance at 490 nm using Multiskan™ GO Microplate Spectrophotometer (Thermo Fisher Scientific).
# (§4) Corrected absorbance values were obtained by subtracting the average 490 nm absorbance of the negative control wells (medium only, no cell, as background control) from all other absorbance values. Percentage inhibition of cell growth for compound treatment was calculated using this formula: […]
# [3] = system: A375 cells; experiment: Cell proliferation assay I (PrestoBlue), A375; assay type: cell-based, human; conditions: 72 h; for A375 cell survival (%): vs control without drug
# Protocol: as §1
# [4] = system: Hep3B hepatoma cells; experiment: Xenotransplantation assay of cell proliferation in zebrafish embryos; assay type: in vivo, human; conditions: two days, zebrafish embryo xenotransplant
# [5] = system: FaDu; experiment: Cell proliferation assay II (MTS), FaDu; assay type: cell-based, human; conditions: 72 h, mean ± SD
# Protocol: as §2, §3, §4
# [6] = system: tert transgenic zebrafish; experiment: H&E staining of liver cells of tert transgenic zebrafish; assay type: in vivo, zebrafish (Danio rerio); conditions: 15 dpf
# Protocol: (§5) 50 zebrafish larva were placed in a fish tank with 800 ml of system water, the water were refreshed every day at 4 pm. From day 5 to day 15, AB(WT) and tert transgenic zebrafish were fed with normal larva food, plus 20 ml of Paramecium, and there must be 2 hours between meals, four meals a day. The last meal must be fed after 1 hour before the water changed. […] The fish were fasting for one days before collecting the samples for RNA extraction and hematoxylin-eosin (H&E) staining.
# After 1 month of RO injection, the fish was sacrificed, and the liver was taken out and divided into two parts for RNA isolation and paraffin section. The liver tissues were frozen in liquid nitrogen immediately after sectioning and stored at −80° C. for later RNA isolation. For histochemistry analysis, liver tissues were fixed in a 10% formalin solution (Sigma-Aldrich Inc., St. Louis, MO, USA). The fixed tissue was embedded in paraffin, and sectioned at 5-μm thickness mounted on poly-L-lysine coated slides, and the sections were stained with hematoxylin and eosin (H&E stain), which this part was performed by the Pathology core facility.
# H&E staining is mainly to observe the states of mitotic figures, […] cells, and macronucleated cells that represent hepatocyte undergoes carcinogenesis.
# [7] = system: HeLa; experiment: Cell proliferation assay II (MTS), HeLa; assay type: cell-based, human; conditions: 72 h, mean ± SD
# Protocol: as §2, §3, §4
# [8] = system: U-87 MG cells; experiment: Cell proliferation assay I (PrestoBlue), U-87 MG; assay type: cell-based, human; conditions: 72 h; for U-87 MG cell survival (%): vs control without drug
# Protocol: as §1
# [9] = system: NCI-H226; experiment: Cell proliferation assay II (MTS), NCI-H226; assay type: cell-based, human; conditions: NCI-H226, 72 h, mean ± SD
# Protocol: as §2, §3, §4
# [10] = system: U87; experiment: Cell proliferation assay II (MTS), U87; assay type: cell-based, human; conditions: U87, 72 h, mean ± SD
# Protocol: as §2, §3, §4
# [11] = system: ccne1, cdk1, cdk2, myca, mycb, ccnd1; experiment: qPCR of cell proliferation markers and beta-catenin downstream target genes in tert transgenic zebrafish; assay type: in vivo, zebrafish (Danio rerio); conditions: 0.5×(50 μM), 15 dpf, vs untreated
# Protocol: as §5
# Total RNA was isolated by NucleoSpin® RNA kit ([…]-NAGEL, USA). […]
# The resulting first-strand cDNA was used as a template for […] PCR in triplicate by using the SYBR Green Q-PCR Master Mix Kit (Applied Biosystems) using an ABI PRISM 7900 System. After normalization to internal control actin, the expression ratio between the experimental and control groups was calculated using the comparative Ct method. The relative expression ratio (fold change) was calculated based on ΔΔCt, ΔΔCt=(Cttarget−Ctactin)treatment−(Cttarget−Ctactin)control, and fold change=2^−ΔΔ^Ct. […] At least three independent samples were used for Q-PCR, and the standard error was calculated and incorporated into the presented data as […]±standard error. Differences among variables were assessed by a two-tailed Student's t test. […]
# [12] = system: K-562; experiment: Cell proliferation assay II (MTS), K-562; assay type: cell-based, human; conditions: K-562, 72 h, mean ± SD
# Protocol: as §2, §3, §4
# [13] = system: zebrafish liver; experiment: Hepatoxicity assay in Tg(fabp10a:EGFP-mCherry) embryos; conditions: 10 μM, embryos treated from 3 dpf
# Protocol: About 3 dpf, 50 embryos were distributed into 10 ml chemical solution/well (chemical/E3 solution) in 6-well plates until 5 dpf and new chemical solution was replaced every day. At 5 dpf, embryos were anesthetized with tricaine (0.016%) and the images of 8 to 10 embryos randomly per well were taken by ZEISS AxioCam MRc. There are three different images which one with auto exposure-time for the clearest view, one with fixed exposure-time to capture RFP (red fluorescent protein) intensity below saturation for intensity measurement and comparison, and the last one with sufficient exposure-time to show the whole liver region for size measurement. Image J software was then used to quantify intensity of RFP and liver size. Average RFP intensity in the liver was calculated and compared within the same group of lateral view fry under the same magnification and fixed exposure-time.
# Images were analyzed by Image J software.
compound,measurement,setting,value
cobalt-containing glutamic acid (COGA) complex,Huh7 cell survival (%),[1]; 5 nM,102% and 107% and 100%
same,Huh7 cell survival (%),[1]; 14 nM,88% and 92% and 84%
same,Huh7 cell survival (%),[1]; 41 nM,78% and 80% and 72%
same,Huh7 cell survival (%),[1]; 123 nM,73% and 77% and 71%
same,Huh7 cell survival (%),[1]; 370 nM,74% and 75% and 69%
same,Huh7 cell survival (%),[1]; 1111 nM,82% and 79% and 73%
same,Huh7 cell survival (%),[1]; 3333 nM,80% and 82% and 75%
same,Huh7 cell survival (%),[1]; 10000 nM,89% and 92% and 82%
same,IC50,[1]; Huh7 cells,287 ± 61.8 nM
same,IC50,[2],102 ± 2 µM
same,A375 cell survival (%),[3]; 5 nM,110% and 104% and 105%
same,A375 cell survival (%),[3]; 14 nM,89% and 87% and 85%
same,A375 cell survival (%),[3]; 41 nM,74% and 71% and 68%
same,A375 cell survival (%),[3]; 123 nM,72% and 69% and 67%
same,A375 cell survival (%),[3]; 370 nM,69% and 68% and 62%
same,A375 cell survival (%),[3]; 1111 nM,70% and 71% and 67%
same,A375 cell survival (%),[3]; 3333 nM,77% and 76% and 72%
same,A375 cell survival (%),[3]; 10000 nM,89% and 88% and 84%
same,IC50,[3]; A375 cells,68.7 ± 15.8 nM
same,hepatoma cell proliferation compared to the DMSO treatment,[4]; 0.5×(50 μM),significantly reduced
same,hepatoma cell proliferation compared to the DMSO treatment,[4]; 1×(100 μM),significantly reduced
same,IC50,[5],74.6 ± 63 µM
same,"number of mitotic figures, trinucleated cells, and macronucleated cells",[6],significantly reduced
same,IC50,[7],73.7 ± 19 µM
same,U-87 MG cell survival (%),[8]; 5 nM,100% and 105% and 103%
same,U-87 MG cell survival (%),[8]; 14 nM,95% and 97%
same,U-87 MG cell survival (%),[8]; 41 nM,89% and 93%
same,U-87 MG cell survival (%),[8]; 123 nM,89%
same,U-87 MG cell survival (%),[8]; 370 nM,87% and 91% and 85%
same,U-87 MG cell survival (%),[8]; 1111 nM,87% and 90% and 84%
same,U-87 MG cell survival (%),[8]; 3333 nM,87% and 89% and 84%
same,U-87 MG cell survival (%),[8]; 10000 nM,89% and 90% and 88%
same,IC50,[8]; U-87 MG cells,> 10 µM
same,IC50,[9],45 µM and 44.5 µM
same,IC50,[10],42 µM
same,"expression of cell proliferation markers (ccne1, cdk1, cdk2) and beta-catenin downstream target genes (myca, mycb, ccnd1)",[11],significantly reduced
same,IC50,[12],54.5 ± 4.4 µM
CNC(=O)c1cc(Oc2ccc(NC(=O)Nc3ccc(Cl)c(C(F)(F)F)c3)cc2)ccn1 [Sorafenib],liver size vs DMSO treated control,[13],significantly reduce liver size
